This assay concerns CD2F1 mice, L1210 leukemia ip, survival T/C. Description: NCI In Vivo Anticancer Drug Screen. Data for tumor model L1210 Leukemia (intraperitoneal) in CD2F1 (CDF1) mice. The note with it: higher = longer survival. The procedure, abridged:
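Vehicle-treated tumor-bearing mice served as controls (C) for compound-treated mice (T). Reported figure is T divided by C.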

[1] abbreviates: endpoint: mean survival time, dose: 100.0 mg/kg/injection, schedule: Q04DX003 (ip), vehicle: saline with Tween-80.
The mark [2] stands for this setting: endpoint: mean survival time, dose: 200.0 mg/kg/injection, schedule: Q04DX003 (ip), vehicle: saline with Tween-80.
[3] abbreviates: endpoint: mean survival time, dose: 400.0 mg/kg/injection, schedule: Q04DX003 (ip), vehicle: saline with Tween-80.
[4] abbreviates: endpoint: mean survival time, dose: 100.0 mg/kg/injection, schedule: Q01DX001 (ip), vehicle: saline with Tween-80.
The mark [5] stands for this setting: endpoint: mean survival time, dose: 200.0 mg/kg/injection, schedule: Q01DX001 (ip), vehicle: saline with Tween-80.
Where [6] appears, read: endpoint: mean survival time, dose: 400.0 mg/kg/injection, schedule: Q01DX001 (ip), vehicle: saline with Tween-80.
Where [7] appears, read: endpoint: mean survival time, dose: 100.0 mg/kg/injection, schedule: Q01DX009 (ip), vehicle: saline with Tween-80.
Setting [8] is: endpoint: mean survival time, dose: 200.0 mg/kg/injection, schedule: Q01DX009 (ip), vehicle: saline with Tween-80.
Where [9] appears, read: endpoint: mean survival time, dose: 400.0 mg/kg/injection, schedule: Q01DX009 (ip), vehicle: saline with Tween-80.

Structures are written as SMILES. Inconclusive results and toxic doses are left out.

Consider `Nc1ccc(OC(=O)Oc2ccc(N)cc2)cc1`, for which the T/C runs as follows: (endpoint: mean survival time, dose: 18.75 mg/kg/injection, schedule: Q06HX068 (ip), vehicle: other) 87 % of control; (endpoint: mean survival time, dose: 18.75 mg/kg/injection, schedule: Q#A X034 (ip), vehicle: other) 100 % of control; (endpoint: mean survival time, dose: 37.5 mg/kg/injection, schedule: Q01DX017 (ip), vehicle: other) 106 % of control; (endpoint: mean survival time, dose: 37.5 mg/kg/injection, schedule: Q#A X034 (ip), vehicle: other) 103 % of control; (endpoint: mean survival time, dose: 75.0 mg/kg/injection, schedule: Q01DX001 (ip), vehicle: other) 100 % of control; (endpoint: mean survival time, dose: 75.0 mg/kg/injection, schedule: Q01DX005 (ip), vehicle: other) 112 % of control. The T/C was 102 % of control (endpoint: mean survival time, dose: 150.0 mg/kg/injection, schedule: Q01DX001 (ip), vehicle: other); 154 % of control (endpoint: mean survival time, dose: 150.0 mg/kg/injection, schedule: Q01DX017 (ip), vehicle: other); 155 % of control (endpoint: mean survival time, dose: 150.0 mg/kg/injection, schedule: Q#A X034 (ip), vehicle: other); 103 % of control (endpoint: mean survival time, dose: 300.0 mg/kg/injection, schedule: Q01DX001 (ip), vehicle: other).

With `O=C(CC(=O)CC(O)(C(F)(F)F)C(F)(F)F)CC(O)(C(F)(F)F)C(F)(F)F`, the T/C is 100 % of control (endpoint: mean survival time, dose: 5.0 mg/kg/injection, schedule: Q04DX003 (ip), vehicle: saline) and 96 % of control (endpoint: mean survival time, dose: 10.0 mg/kg/injection, schedule: Q04DX003 (ip), vehicle: saline).

Turning to `CCOC(=O)N1N(C(=O)c2ccccc2)C(=O)CC1(C)C`, the T/C runs as follows: (endpoint: mean survival time, dose: 100.0 mg/kg/injection, schedule: Q01DX001 (ip), vehicle: other) 95 % of control; (endpoint: mean survival time, dose: 200.0 mg/kg/injection, schedule: Q01DX001 (ip), vehicle: other) 116 % of control; (endpoint: mean survival time, dose: 400.0 mg/kg/injection, schedule: Q01DX001 (ip), vehicle: other) 98 % of control.

Turning to `CC(C(=O)O)C1CCC2C3CC=C4CC(O)CCC4(C)C3CCC12C` (centres undefined), the T/C runs as follows: under setting [1], 99 % of control; under setting [2], 100 % of control; under setting [3], 100 % of control.

In the case of `O=C1OCC2C1Cc1cc(O)c(O)cc1C2c1ccc(O)c(O)c1` (centres undefined), the T/C (endpoint: mean survival time, dose: 50.0 mg/kg/injection, schedule: Q01DX009 (ip), vehicle: Klucel (hydroxypropylcellulose) (HPC)) is 96 % of control; the T/C (endpoint: mean survival time, dose: 100.0 mg/kg/injection, schedule: Q01DX009 (ip), vehicle: Klucel (hydroxypropylcellulose) (HPC)) is 101 % of control; the T/C (endpoint: mean survival time, dose: 200.0 mg/kg/injection, schedule: Q01DX009 (ip), vehicle: Klucel (hydroxypropylcellulose) (HPC)) was 104 % of control.

Consider `C=CC[n+]1ccccc1Cc1ccccc1`, for which the T/C by setting is: (endpoint: mean survival time, dose: 25.0 mg/kg/injection, schedule: Q01DX001 (ip), vehicle: saline) 98 % of control; (endpoint: mean survival time, dose: 50.0 mg/kg/injection, schedule: Q01DX001 (ip), vehicle: saline) 95 % of control.

Regarding `CCCCC(=O)OCC(=O)[C@]1(O)Cc2c(O)c3c(c(O)c2[C@@H](OC2CC(NC(=O)C(F)(F)F)C(O)C(C)O2)C1)C(=O)c1c(OC)cccc1C3=O` (some centres undefined), the T/C is 113 % of control (endpoint: mean survival time, dose: 4.0 mg/kg/injection, schedule: Q01DX009 (ip), vehicle: Klucel (hydroxypropylcellulose) (HPC)); 97 % of control (endpoint: mean survival time, dose: 4.0 mg/kg/injection, schedule: Q01DX009 (ip), vehicle: water); 118 % of control (endpoint: mean survival time, dose: 8.0 mg/kg/injection, schedule: Q01DX009 (ip), vehicle: Klucel (hydroxypropylcellulose) (HPC)); 101 % of control (endpoint: mean survival time, dose: 8.0 mg/kg/injection, schedule: Q01DX009 (ip), vehicle: water); 106 % of control (endpoint: mean survival time, dose: 16.0 mg/kg/injection, schedule: Q01DX009 (ip), vehicle: water); 150 % of control (endpoint: mean survival time, dose: 32.0 mg/kg/injection, schedule: Q01DX009 (ip), vehicle: Klucel (hydroxypropylcellulose) (HPC)). The T/C (endpoint: mean survival time, dose: 32.0 mg/kg/injection, schedule: Q01DX009 (ip), vehicle: water) is 111 % of control; the T/C (endpoint: mean survival time, dose: 64.0 mg/kg/injection, schedule: Q01DX009 (ip), vehicle: Klucel (hydroxypropylcellulose) (HPC)) was 167 % of control; the T/C (endpoint: mean survival time, dose: 64.0 mg/kg/injection, schedule: Q01DX009 (ip), vehicle: water) is 113 % of control; the T/C (endpoint: mean survival time, dose: 128.0 mg/kg/injection, schedule: Q01DX009 (ip), vehicle: Klucel (hydroxypropylcellulose) (HPC)) is 250 % of control; the T/C (endpoint: median survival time, dose: 13.0 mg/kg/injection, schedule: Q10HX004 (ip), vehicle: other) is 100 % of control; the T/C (endpoint: median survival time, dose: 21.6 mg/kg/injection, schedule: Q10HX004 (ip), vehicle: other) was 102 % of control. Further, the T/C was 114 % of control (endpoint: median survival time, dose: 36.0 mg/kg/injection, schedule: Q10HX004 (ip), vehicle: other); 118 % of control (endpoint: median survival time, dose: 60.0 mg/kg/injection, schedule: Q10HX004 (ip), vehicle: other); 153 % of control (endpoint: median survival time, dose: 100.0 mg/kg/injection, schedule: Q10HX004 (ip), vehicle: other).

Turning to `CCCCCCCCCCCCCCSc1ccc(Br)cc1`, the T/C is, setting by setting: under setting [4], 110 % of control; under setting [5], 101 % of control; under setting [6], 93 % of control.

On to `CCCN(CCC)S(=O)(=O)c1ccc(NC(=O)OC2CCCC2)cc1`, for which the T/C by setting is: (endpoint: mean survival time, dose: 100.0 mg/kg/injection, schedule: Q01DX001 (ip), vehicle: saline) 104 % of control; (endpoint: mean survival time, dose: 200.0 mg/kg/injection, schedule: Q01DX001 (ip), vehicle: saline) 106 % of control; (endpoint: mean survival time, dose: 400.0 mg/kg/injection, schedule: Q01DX001 (ip), vehicle: saline) 105 % of control.

As to `CCOC(=O)CCC1(CCC(=O)OCC)c2ccccc2-c2ccccc21`, the T/C runs as follows: (endpoint: mean survival time, dose: 100.0 mg/kg/injection, schedule: Q01DX001 (ip), vehicle: Klucel (hydroxypropylcellulose) (HPC)) 96 % of control; (endpoint: mean survival time, dose: 200.0 mg/kg/injection, schedule: Q01DX001 (ip), vehicle: Klucel (hydroxypropylcellulose) (HPC)) 104 % of control; (endpoint: mean survival time, dose: 400.0 mg/kg/injection, schedule: Q01DX001 (ip), vehicle: Klucel (hydroxypropylcellulose) (HPC)) 104 % of control.

Regarding `COc1ccc2[nH]c(=O)c3c(c2c1)CCC(OC(=O)c1ccccc1)C3` (centres undefined), the T/C is 104 % of control (endpoint: mean survival time, dose: 12.5 mg/kg/injection, schedule: Q01DX009 (ip), vehicle: saline); 104 % of control (endpoint: mean survival time, dose: 18.8 mg/kg/injection, schedule: Q04DX003 (ip), vehicle: saline); 97 % of control (endpoint: mean survival time, dose: 25.0 mg/kg/injection, schedule: Q01DX009 (ip), vehicle: saline); 101 % of control (endpoint: mean survival time, dose: 37.5 mg/kg/injection, schedule: Q04DX003 (ip), vehicle: saline); 98 % of control (endpoint: mean survival time, dose: 50.0 mg/kg/injection, schedule: Q01DX009 (ip), vehicle: saline); 97 % of control (endpoint: mean survival time, dose: 75.0 mg/kg/injection, schedule: Q04DX003 (ip), vehicle: saline).

As to `C(=C1c2ccccc2-c2ccccc21)c1cccnc1`, the T/C under setting [7] is 98 % of control; the T/C under setting [1] is 101 % of control; the T/C under setting [8] was 102 % of control; the T/C under setting [2] is 101 % of control; the T/C under setting [9] is 88 % of control; the T/C under setting [3] is 95 % of control.

On to `CC(=O)Nc1ccc(C(C)=O)cc1[N+](=O)[O-]`, for which the T/C reads like this: under setting [7], 91 % of control; under setting [1], 101 % of control; under setting [8], 95 % of control; under setting [2], 100 % of control; under setting [9], 95 % of control; under setting [3], 100 % of control.

`CCCCCCCCCCCC1=NC(CO)(CO)CO1`: the T/C is 96 % of control under setting [7], 90 % of control under setting [8] and 93 % of control under setting [9].

Turning to `CCOc1ccc(OCC)c(NC(=O)Nc2ccccc2Cl)c1`, the T/C is, setting by setting: (endpoint: mean survival time, dose: 25.0 mg/kg/injection, schedule: Q04DX002 (ip), vehicle: saline with Tween-80) 94 % of control; (endpoint: mean survival time, dose: 50.0 mg/kg/injection, schedule: Q04DX002 (ip), vehicle: saline with Tween-80) 94 % of control; (endpoint: mean survival time, dose: 100.0 mg/kg/injection, schedule: Q04DX002 (ip), vehicle: saline with Tween-80) 90 % of control.

Regarding `O=C(O)CCn1cccc1`, the T/C was 91 % of control under setting [4] and 89 % of control under setting [5].

With `O=C(COC(=O)C1CCCCCCC1)c1ccc(Br)cc1`, the T/C is 100 % of control under setting [4]; 94 % of control under setting [1]; 107 % of control under setting [5]; 96 % of control under setting [2]; 97 % of control under setting [6]; 97 % of control under setting [3].
